Assay results published in patent US20180305332A1, “Bispiperidinyl Derivatives as Liver X Receptor Beta Agonists, Compositions, and Their Use” (Merck Sharp & Dohme Corp., priority 2015, published 2018).

Key:
[1] = molecular target: T1, GST tagged LXRalpha LBD (ligand binding domain) (Homo sapiens, UniProt Q13133); assay: LanthaScreen TR-FRET Liver X Receptor Coactivator Assay, LXR alpha-LBD; assay type: biochemical; settings: relative to reference T0901317; for EC50: read-out: LXR alpha IP; for Emax / LXR alpha act @ max dose (%): activity at max dose (efficacy); for Emax: read-out: LXR alpha act @ max dose (%)
T1 construct: purchased Invitrogen pv4655
T1 sequence (Q13133 209-447 limits assumed): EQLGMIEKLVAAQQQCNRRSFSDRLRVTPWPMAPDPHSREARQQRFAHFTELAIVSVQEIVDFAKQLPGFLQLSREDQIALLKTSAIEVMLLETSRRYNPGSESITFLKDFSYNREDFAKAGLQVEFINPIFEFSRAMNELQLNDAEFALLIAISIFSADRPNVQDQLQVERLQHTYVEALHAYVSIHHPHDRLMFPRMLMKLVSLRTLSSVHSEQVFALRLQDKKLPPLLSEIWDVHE
In short: (§1)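 Cmpd + LBD → add fluorescein coactivator peptide/Tb-anti-GST Ab mix → incubate RT → TR-FRET readout. IP and Emax referenced to T0901317 (dual LXR agonist).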

[2] = molecular target: T2, GST tagged LXRbeta LBD (ligand binding domain) (Homo sapiens, UniProt P55055); assay: LanthaScreen TR-FRET Liver X Receptor Coactivator Assay, LXR beta-LBD; assay type: biochemical; settings: relative to reference T0901317; for EC50: Inflection Point (potency), co-activator recruitment, read-out: LXR beta IP; for Emax / LXR beta act @ max dose (%): activity at max dose (efficacy); for Emax: read-out: LXR beta act @ max dose (%)
T2 construct: purchased Invitrogen pv4658.pps
T2 sequence (P55055 222-460 limits assumed): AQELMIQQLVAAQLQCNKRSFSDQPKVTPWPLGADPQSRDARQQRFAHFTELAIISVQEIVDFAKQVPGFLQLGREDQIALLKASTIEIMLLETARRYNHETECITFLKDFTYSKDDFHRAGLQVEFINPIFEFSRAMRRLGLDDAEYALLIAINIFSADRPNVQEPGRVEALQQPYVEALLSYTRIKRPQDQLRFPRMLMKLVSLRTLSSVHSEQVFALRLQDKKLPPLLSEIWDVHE
In short: as §1

[3] = Inflection Point (potency), co-activator recruitment

EC50 [1, 3] [nM] | Emax [1] [%] | EC50 [2] [nM] | Emax [2] [%] | LXR alpha act @ max dose (%) [1] [%] | LXR beta act @ max dose (%) [2] [%] | LXR alpha IP (nM) [1, 3] | SMILES
594 | 74 | 15 | 115 |  |  |  | CN(C)C(=O)c1ccc(N2CCC(C3CCN(C(=O)C(C)(C)c4ccccc4Cl)CC3)CC2)cc1Cl [Example A-83, 2-chloro-4-{1′-[2-(2-chlorophenyl)-2-methylpropanoyl]-4,4′-bipiperidin-1-yl}-N,N-dimethylbenzamide]
1080 | 37 | 74 | 101 |  |  |  | COc1ccccc1C(C)(C)C(=O)N1CCC(C2CCN(c3ccc(C(=O)N(C)C)c(Cl)c3)CC2)CC1 [Example A-88, 2-chloro-4-{1′-[2-(2-methoxyphenyl)-2-methylpropanoyl]-4,4′-bipiperidin-1-yl}-N,N-dimethylbenzamide]
2090 | 42 | 147 | 112 |  |  |  | CN(C)C(=O)c1ccc(N2CCC(C3CCN(C(=O)C(C)(C)c4cccc(F)c4)CC3)CC2)cc1Cl [Example A-91, 2-chloro-4-{1′-[2-(3-fluorophenyl)-2-methylpropanoyl]-4,4′-bipiperidin-1-yl}-N,N-dimethylbenzamide]
2840 | 31 | 193 | 99 |  |  |  | Cc1ccc(C(C)(C)C(=O)N2CCC(C3CCN(c4ccc(C(=O)N(C)C)c(Cl)c4)CC3)CC2)cc1 [Example A-92, 2-chloro-N,N-dimethyl-4-{1′-[2-methyl-2-(4-methylphenyl)propanoyl]-4,4′-bipiperidin-1-yl}benzamide]
1330 | 38 | 84 | 116 |  |  |  | CN(C)C(=O)c1ccc(N2CCC(C3CCN(C(=O)C(O)(c4cccc(F)c4)C(F)(F)F)CC3)CC2)cc1Cl (centres unmarked) [Example A-95, 2-chloro-N,N-dimethyl-4-{1′-[3,3,3-trifluoro-2-(3-fluorophenyl)-2-hydroxypropanoyl]-4,4′-bipiperidin-1-yl}benzamide]
2340 | 29 | 132 | 107 |  |  |  | CN(C)C(=O)c1ccc(N2CCC(C3CCN(C(=O)C(O)(c4ccccc4F)C(F)(F)F)CC3)CC2)cc1Cl (centres unmarked) [Example A-96, 2-chloro-N,N-dimethyl-4-{1′-[3,3,3-trifluoro-2-(2-fluorophenyl)-2-hydroxypropanoyl]-4,4′-bipiperidin-1-yl}benzamide]
2430 | 37 | 114 | 100 |  |  |  | COc1ccccc1C(O)(C(=O)N1CCC(C2CCN(c3ccc(C(=O)N(C)C)c(Cl)c3)CC2)CC1)C(F)(F)F (centres unmarked) [Example A-97, 2-chloro-N,N-dimethyl-4-{1′-[3,3,3-trifluoro-2-hydroxy-2-(2-methoxyphenyl)propanoyl]-4,4′-bipiperidin-1-yl}benzamide]
4960 | 33 | 324 | 92 |  |  |  | CN(C)C(=O)c1ccc(N2CCC(C3CCN(C(=O)C(c4ccccc4)C(F)(F)F)CC3)CC2)cc1Cl (centres unmarked) [Example A-98, 2-chloro-N,N-dimethyl-4-[1′-(3,3,3-trifluoro-2-phenylpropanoyl)-4,4′-bipiperidin-1-yl]benzamide]
5770 | 48 | 140 | 121 |  |  |  | Cc1ccccc1S(=O)(=O)N1CCC(C2CCN(c3ccc(C(=O)N(C)C)c(Cl)c3)CC2)CC1 [Example A-100, 2-chloro-N,N-dimethyl-4-{1′-[(2-methylphenyl)sulfonyl]-4,4′-bipiperidin-1-yl}benzamide]

The next lines start with the compound.

SMILES | EC50 [1, 3] [nM] | Emax [1] [%] | EC50 [2] [nM] | Emax [2] [%] | LXR alpha act @ max dose (%) [1] [%] | LXR beta act @ max dose (%) [2] [%] | LXR alpha IP (nM) [1, 3]
CCCC(O)(C(=O)N1CCC(C2CCN(c3ccc(C(=O)N(C)C)c(Cl)c3)CC2)CC1)C(F)(F)F (centres unmarked) [Example A-84, 2-chloro-4-{1′-[2-hydroxy-2-(trifluoromethyl)pentanoyl]-4,4′-bipiperidin-1-yl}-N,N-dimethylbenzamide] | 1370 |  | 173 |  | 63 | 116 | 
COc1cccc(C(O)(C(=O)N2CCC(C3CCN(c4ccc(C(=O)N(C)C)c(Cl)c4)CC3)CC2)C(F)(F)C(F)(F)F)c1 (centres unmarked) [Example A-85, 2-chloro-N,N-dimethyl-4-{1′-[3,3,4,4,4-pentafluoro-2-hydroxy-2-(3-methoxyphenyl)butanoyl]-4,4′-bipiperidin-1-yl}benzamide] | 1120 |  | 180 |  | 41 | 115 | 
CN(C)C(=O)c1ccc(N2CCC(C3CCN(C(=O)C4(c5ccccc5Cl)CC4)CC3)CC2)cc1Cl [Example A-86, 2-chloro-4-(1′-{[1-(2-chlorophenyl)cyclopropyl]carbonyl}-4,4′-bipiperidin-1-yl)-N,N-dimethylbenzamide] | 671 | 73 | 16 | 112 |  |  | 
COc1ccccc1C1(C(=O)N2CCC(C3CCN(c4ccc(C(=O)N(C)C)c(Cl)c4)CC3)CC2)CCC1 [Example A-87, 2-chloro-4-(1′-{[1-(2-methoxyphenyl)cyclobutyl]carbonyl}-4,4′-bipiperidin-1-yl)-N,N-dimethylbenzamide] | 499 | 58 | 11 | 110 |  |  | 
CC(C)CC(O)(C(=O)N1CCC(C2CCN(c3ccc(C(=O)N(C)C)c(Cl)c3)CC2)CC1)C(F)(F)F (centres unmarked) [Example A-89, 2-chloro-4-{1′-[2-hydroxy-4-methyl-2-(trifluoromethyl)pentanoyl]-4,4′-bipiperidin-1-yl}-N,N-dimethylbenzamide] | 1220 |  | 102 |  | 36 | 94 | 
CC(C)CC(O)(C(=O)N1CCC(C2CCN(c3ccc(C(=O)N(C)C)c(Cl)c3)CC2)CC1)C(F)(F)F (centres unmarked) [Example A-90, 2-chloro-4-{1′-[2-hydroxy-4-methyl-2-(trifluoromethyl)pentanoyl]-4,4′-bipiperidin-1-yl}-N,N-dimethylbenzamide] | 686 |  | 108 |  | 45 | 70 | 
COc1cccc(C2(C(=O)N3CCC(C4CCN(c5ccc(C(=O)N(C)C)c(Cl)c5)CC4)CC3)CCC2)c1 [Example A-93, 2-chloro-4-(1′-{[1-(3-methoxyphenyl)cyclobutyl]carbonyl}-4,4′-bipiperidin-1-yl)-N,N-dimethylbenzamide] | 2270 | 22 | 171 | 100 |  |  | 
CN(C)C(=O)c1ccc(N2CCC(C3CCN(C(=O)C4(c5ccccc5Cl)CCCC4)CC3)CC2)cc1Cl [Example A-94, 2-chloro-4-(1′-{[1-(2-chlorophenyl)cyclopentyl]carbonyl}-4,4′-bipiperidin-1-yl)-N,N-dimethylbenzamide] | 250 | 67 | 13 | 124 |  |  | 
CN(C)C(=O)c1ccc(N2CCC(C3CCN(S(=O)(=O)c4ccccc4)CC3)CC2)cc1Cl [Example A-99, 2-chloro-N,N-dimethyl-4-[1′-(phenylsulfonyl)-4,4′-bipiperidin-1-yl]benzamide] |  | 0 | 496 | 54 |  |  | NO IP
CN(C)C(=O)c1ccc(N2CCC(C3CCN(S(=O)(=O)c4ccccc4C(F)(F)F)CC3)CC2)cc1Cl [Example A-101, 2-chloro-N,N-dimethyl-4-(1′-{[2-(trifluoromethyl)phenyl]sulfonyl}-4,4′-bipiperidin-1-yl)benzamide] | 618 | 65 | 8 | 138 |  |  | 
CN(C)C(=O)c1ccc(N2CCC(C3CCN(S(=O)(=O)c4ccccc4C#N)CC3)CC2)cc1Cl [Example A-102, 2-chloro-4-{1′-[(2-cyanophenyl)sulfonyl]-4,4′-bipiperidin-1-yl}-N,N-dimethylbenzamide] | 57100 | 48 | 45 | 130 |  |  | 
CN(C)C(=O)c1ccc(N2CCC(C3CCN(S(=O)(=O)c4ccccc4Cl)CC3)CC2)cc1Cl [Example A-103, 2-chloro-4-{1′-[(2-chlorophenyl)sulfonyl]-4,4′-bipiperidin-1-yl}-N,N-dimethylbenzamide] | 2190 | 54 | 16 | 122 |  |  | 
CN(C)C(=O)c1ccc(N2CCC(C3CCN(S(=O)(=O)c4c(Cl)cccc4Cl)CC3)CC2)cc1Cl [Example A-104, 2-chloro-4-{1′-[(2,6-dichlorophenyl)sulfonyl]-4,4′-bipiperidin-1-yl}-N,N-dimethylbenzamide] | 2340 | 67 | 21 | 129 |  |  | 
CN(C)C(=O)c1ccc(N2CCC(C3CCN(S(=O)(=O)c4c(Cl)cccc4C(F)(F)F)CC3)CC2)cc1Cl [Example A-105, 2-chloro-4-(1′-{[2-chloro-6-(trifluoromethyl)phenyl]sulfonyl}-4,4′-bipiperidin-1-yl)-N,N-dimethylbenzamide] | 1090 | 44 | 55 | 118 |  |  | 
